In patent publication US9737504B2, “Dihydroorotic and acid dehydrogenase inhibitor” (NAI INC., priority 2012, dated 2017):
Where two headings read alike, the source gives them in different places.

How the values were obtained:
human DHOD = human DHOD (Homo sapiens, UniProt Q02127); assay: Measurement of DHOD inhibitory activity (DCIP reduction, end point assay); assay type: biochemical
Method: The compounds of the present invention were used and measured for their DHOD inhibitory activity at concentrations of 200 nM and 1000 nM.
Reduction of DCIP was measured at 600 nm over 20 minutes.

HBC-4 = assay: JFCR39 cancer cell growth inhibition test, HBC-4; assay type: cell-based; conditions: Homo sapiens, HBC4; HBC-4, Br (Breast)
BSY-1 = assay: JFCR39 cancer cell growth inhibition test, BSY-1; assay type: cell-based; conditions: Homo sapiens; BSY-1, Br (Breast)
HBC-5 = assay: JFCR39 cancer cell growth inhibition test, HBC-5; assay type: cell-based; conditions: Homo sapiens, HBC5; HBC-5, Br (Breast)
MCF-7 = assay: JFCR39 cancer cell growth inhibition test, MCF-7; assay type: cell-based; conditions: Homo sapiens, MCF7; MCF-7, Br (Breast)
U251 = assay: JFCR39 cancer cell growth inhibition test, U251; assay type: cell-based; conditions: Homo sapiens, U-251; U251, CNS (Central Nervous Systems)
SF-268 = assay: JFCR39 cancer cell growth inhibition test, SF-268; assay type: cell-based; conditions: Homo sapiens; SF-268, CNS (Central Nervous Systems)
SF-295 = assay: JFCR39 cancer cell growth inhibition test, SF-295; assay type: cell-based; conditions: Homo sapiens; SF-295, CNS (Central Nervous Systems)
SF-539 = assay: JFCR39 cancer cell growth inhibition test, SF-539; assay type: cell-based; conditions: Homo sapiens; SF-539, CNS (Central Nervous Systems)
SNB-75 = assay: JFCR39 cancer cell growth inhibition test, SNB-75; assay type: cell-based; conditions: Homo sapiens; SNB-75, CNS (Central Nervous Systems)
HCC2998 = assay: JFCR39 cancer cell growth inhibition test, HCC2998; assay type: cell-based; conditions: Homo sapiens, HCC 2998; HCC2998, Co (Colon)
KM-12 = assay: JFCR39 cancer cell growth inhibition test, KM-12; assay type: cell-based; conditions: Homo sapiens, KM12; KM-12, Co (Colon)
HT-29 = assay: JFCR39 cancer cell growth inhibition test, HT-29; assay type: cell-based; conditions: Homo sapiens; HT-29, Co (Colon)
HCT-15 = assay: JFCR39 cancer cell growth inhibition test, HCT-15; assay type: cell-based; conditions: Homo sapiens; HCT-15, Co (Colon)
HCT-116 = assay: JFCR39 cancer cell growth inhibition test, HCT-116; assay type: cell-based; conditions: Homo sapiens; HCT-116, Co (Colon)
NCI-H23 = assay: JFCR39 cancer cell growth inhibition test, NCI-H23; assay type: cell-based; conditions: Homo sapiens; NCI-H23, Lu (Lung)
NCI-H226 = assay: JFCR39 cancer cell growth inhibition test, NCI-H226; assay type: cell-based; conditions: Homo sapiens; NCI-H226, Lu (Lung)
NCI-H522 = assay: JFCR39 cancer cell growth inhibition test, NCI-H522; assay type: cell-based; conditions: Homo sapiens; NCI-H522, Lu (Lung)
NCI-H460 = assay: JFCR39 cancer cell growth inhibition test, NCI-H460; assay type: cell-based; conditions: Homo sapiens; NCI-H460, Lu (Lung)
A549 = assay: JFCR39 cancer cell growth inhibition test, A549; assay type: cell-based; conditions: Homo sapiens; A549, Lu (Lung)
DMS273 = assay: JFCR39 cancer cell growth inhibition test, DMS273; assay type: cell-based; conditions: Homo sapiens, DMS-273; DMS273, Lu (Lung)
DMS114 = assay: JFCR39 cancer cell growth inhibition test, DMS114; assay type: cell-based; conditions: Homo sapiens, DMS-114; DMS114, Lu (Lung)
L0X-IMVI = assay: JFCR39 cancer cell growth inhibition test, L0X-IMVI; assay type: cell-based; conditions: Homo sapiens, Me (Melanoma)
OVCAR-3 = assay: JFCR39 cancer cell growth inhibition test, OVCAR-3; assay type: cell-based; conditions: Homo sapiens; OVCAR-3, Ov (Ovarian)
OVCAR-4 = assay: JFCR39 cancer cell growth inhibition test, OVCAR-4; assay type: cell-based; conditions: Homo sapiens; OVCAR-4, Ov (Ovarian)
OVCAR-8 = assay: JFCR39 cancer cell growth inhibition test, OVCAR-8; assay type: cell-based; conditions: Homo sapiens; OVCAR-8, Ov (Ovarian)
SK-OV-3 = assay: JFCR39 cancer cell growth inhibition test, SK-OV-3; assay type: cell-based; conditions: Homo sapiens; SK-OV-3, Ov (Ovarian)
RXF-631L = assay: JFCR39 cancer cell growth inhibition test, RXF-631L; assay type: cell-based; conditions: Homo sapiens, Re (Renal)
ACHN = assay: JFCR39 cancer cell growth inhibition test, ACHN; assay type: cell-based; conditions: Homo sapiens, Re (Renal)
St-4 = assay: JFCR39 cancer cell growth inhibition test, St-4; assay type: cell-based; conditions: Homo sapiens; St-4, St (Stomac)
MKN1 = assay: JFCR39 cancer cell growth inhibition test, MKN1; assay type: cell-based; conditions: Homo sapiens, MKN-1; MKN1, St (Stomac)
MKN7 = assay: JFCR39 cancer cell growth inhibition test, MKN7; assay type: cell-based; conditions: Homo sapiens, MKN-7; MKN7, St (Stomac)
MKN28 = assay: JFCR39 cancer cell growth inhibition test, MKN28; assay type: cell-based; conditions: Homo sapiens, MKN-28; MKN28, St (Stomac)
MKN74 = assay: JFCR39 cancer cell growth inhibition test, MKN74; assay type: cell-based; conditions: Homo sapiens, MKN-74; MKN74, St (Stomac)
DU-145 = assay: JFCR39 cancer cell growth inhibition test, DU-145; assay type: cell-based; conditions: Homo sapiens; DU-145, xPg (Prostate)
PC-3 = assay: JFCR39 cancer cell growth inhibition test, PC-3; assay type: cell-based; conditions: Homo sapiens; PC-3, xPg (Prostate)
[1] = tested on: HDF cells (human dermal fibroblast cells); assay: Inhibitory effect on HDF cells, control vs hypoxic and subnutritional conditions; assay type: cell-based; conditions: for IC50: Homo sapiens, HDF normal skin cells
Method: For these reasons, cells of colorectal and pancreatic cancers, each being regarded as intractable, were used to test the inhibitory effect of compounds under hypoxic and subnutritional conditions. Moreover, the same test was also performed on normal skin cells.
The cells used were two types of cancer cells, i.e., DLD-1 cells (human colorectal cancer cells) and Panc-1 cells (human pancreatic cells), as well as HDF cells (human dermal fibroblast cells).

Chain of human DHOD (Q02127 whole entry): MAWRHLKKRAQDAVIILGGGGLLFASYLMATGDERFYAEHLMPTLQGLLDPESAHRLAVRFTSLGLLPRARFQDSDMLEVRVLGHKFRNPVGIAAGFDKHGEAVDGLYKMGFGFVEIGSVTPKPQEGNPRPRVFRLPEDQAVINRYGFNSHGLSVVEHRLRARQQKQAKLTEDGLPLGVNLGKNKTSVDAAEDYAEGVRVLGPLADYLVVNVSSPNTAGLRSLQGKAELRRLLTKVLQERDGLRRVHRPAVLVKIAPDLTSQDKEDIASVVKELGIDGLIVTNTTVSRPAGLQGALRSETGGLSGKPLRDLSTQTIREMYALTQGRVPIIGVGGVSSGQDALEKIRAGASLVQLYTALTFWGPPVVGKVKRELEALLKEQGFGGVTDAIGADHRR

`C/C(=C\Cc1c(O)c(Cl)c(C)c(C=O)c1O)CC/C=C(\C)[C@@H]1CC(=O)C(C)(C)O1` (racemic) [Ascofuranone, dl-5-Chloro-2,4-dihydroxy-6-methyl-3-[(2E,6E)-3-methyl-7-(3,3-dimethyl-4-oxo-2-oxacyclopentyl)-2,6-octadienyl]benzaldehyde] gave an inhibition at 0.2 µM (human DHOD; read-out: DHOD inhibition rate (%) 200 nM, 200 nM compound) of 73%, an IC50 (human DHOD; read-out: IC50 (nM) human DHOD (HsDHOD)) of 38 nM and a GI50 (HBC-4) of 9.1 µM. The GI50 (BSY-1) was 16 µM, the GI50 (HBC-5) was 28 µM and the GI50 (MCF-7) was 9 µM. The GI50 (U251) was 1.5 µM, the GI50 (SF-268) was 7 µM and the GI50 (SF-295) was 5.3 µM. For the same molecule, the GI50 (SF-539) was 1.7 µM, the GI50 (SNB-75) was 23 µM and the GI50 (HCC2998) was 17 µM. It also gave a GI50 (KM-12) of 9.3 µM, a GI50 (HT-29) of 6.6 µM and a GI50 (HCT-15) of 1.3 µM. The GI50 (HCT-116) was 5.1 µM, the GI50 (NCI-H23) was 15 µM and the GI50 (NCI-H226) was 15 µM. For the same molecule, the GI50 (NCI-H522) was 8.4 µM, the GI50 (NCI-H460) was 2 µM and the GI50 (A549) was 7.6 µM. The GI50 (DMS273) was 5.9 µM, the GI50 (DMS114) was 19 µM and the GI50 (L0X-IMVI) was 2.8 µM. For the same molecule, the GI50 (OVCAR-3) was 8 µM, the GI50 (OVCAR-4) was 5.9 µM and the GI50 (OVCAR-8) was 9.5 µM. It also gave a GI50 (SK-OV-3) of 13 µM, a GI50 (RXF-631L) of 12 µM and a GI50 (ACHN) of 10 µM. It also gave a GI50 (St-4) of 14 µM, a GI50 (MKN1) of 14 µM and a GI50 (MKN7) of 15 µM. It also gave a GI50 (MKN28) of 9.7 µM, a GI50 (MKN74) of 13 µM and a GI50 (DU-145) of 11 µM. For the same molecule, the GI50 (PC-3) was 13 µM, the “Selectivity = 21% glc(+)gln(+) IC50/1% glc(−)gln(−) IC50” value ([1]; HDF) was over 63 and the IC50 ([1]; read-out: IC50 [μM] 1% O2 glc(−)gln(−), 1% O2 glc(−)gln(−)) was 1.6 µM. The IC50 ([1]; 21% O2 glc(+)gln(+), read-out: IC50 [μM] 21% O2 glc(+)gln(+)) was over 100 µM.
